Measurements as given in ChEMBL document CHEMBL1201862, “PubChem BioAssay data set” (2004).
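Following 48 hours of exposure in 96-well plates, responses at five concentrations were used to interpolate endpoints linearly. GI50 = concentration required for 50% inhibition of growth.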 The source made the active and inactive calls. Cut-off read from the data, not from the text of the source: active = GI50 up to about 1.1 µM and inactive = higher.

Key:
Test in all cases: NCI-60 cell line screen, 48 h
786-0 = tested on: 786-0
A498 = tested on: A498
A549 = tested on: A549
ACHN = tested on: ACHN
CCRF-CEM = tested on: CCRF-CEM
COLO 205 = tested on: COLO 205
DLD-1 = tested on: DLD-1
DMS-114 = tested on: DMS-114
DMS-273 = tested on: DMS-273
EKVX = tested on: EKVX
HCC 2998 = tested on: HCC 2998
HCT-116 = tested on: HCT-116
HCT-15 = tested on: HCT-15
HL-60 = tested on: HL-60
HOP-18 = tested on: HOP-18
HOP-62 = tested on: HOP-62
HOP-92 = tested on: HOP-92
IGROV-1 = tested on: IGROV-1
K562 = tested on: K562
KM-20L2 = tested on: KM-20L2
LOX IMVI = tested on: LOX IMVI
LXFL 529 = tested on: LXFL 529
M14 = tested on: M14
M19-MEL = tested on: M19-MEL
MOLT-4 = tested on: MOLT-4
NCI-H23 = tested on: NCI-H23
NCI-H460 = tested on: NCI-H460
OVCAR-3 = tested on: OVCAR-3
OVCAR-4 = tested on: OVCAR-4
OVCAR-8 = tested on: OVCAR-8
RPMI-8226 = tested on: RPMI-8226
RXF 393 = tested on: RXF 393
RXF 631 = tested on: RXF 631
SF-295 = tested on: SF-295
SF-539 = tested on: SF-539
SK-MEL-28 = tested on: SK-MEL-28
SK-MEL-5 = tested on: SK-MEL-5
SK-OV-3 = tested on: SK-OV-3
SN12C = tested on: SN12C
SNB-19 = tested on: SNB-19
SNB-75 = tested on: SNB-75
SNB-78 = tested on: SNB-78
SW-620 = tested on: SW-620
TK-10 = tested on: TK-10
U-251 = tested on: U-251
UACC-62 = tested on: UACC-62
XF498 = tested on: XF498
CAKI-1 = tested on: CAKI-1
KM12 = tested on: KM12
SF-268 = tested on: SF-268
SK-MEL-2 = tested on: SK-MEL-2
SR = tested on: SR
UACC-257 = tested on: UACC-257
UO-31 = tested on: UO-31
HT-29 = tested on: HT-29
Malme-3M = tested on: Malme-3M
NCI-H226 = tested on: NCI-H226
NCI-H522 = tested on: NCI-H522
OVCAR-5 = tested on: OVCAR-5

Compound: CCOC(=O)c1ccc(/C(C)=N/NC(N)=S)cc1
- GI50 (786-0): > 100 µM (inactive)
- GI50 (A498): > 100 µM (inactive)
- GI50 (A549): > 100 µM (inactive)
- GI50 (ACHN): > 100 µM (inactive)
- GI50 (CCRF-CEM): > 100 µM (inactive)
- GI50 (COLO 205): > 100 µM (inactive)
- GI50 (DLD-1): > 100 µM (inactive)
- GI50 (DMS-114): > 100 µM (inactive)
- GI50 (DMS-273): > 100 µM (inactive)
- GI50 (EKVX): 2.74 µM (inactive)
- GI50 (HCC 2998): > 100 µM (inactive)
- GI50 (HCT-116): > 100 µM (inactive)
- GI50 (HCT-15): > 100 µM
- GI50 (HL-60): > 100 µM (inactive)
- GI50 (HOP-18): > 100 µM (inactive)
- GI50 (HOP-62): > 100 µM (inactive)
- GI50 (HOP-92): > 100 µM (inactive)
- GI50 (IGROV-1): > 100 µM (inactive)
- GI50 (K562): > 100 µM (inactive)
- GI50 (KM-20L2): > 100 µM (inactive)
- GI50 (LOX IMVI): > 100 µM (inactive)
- GI50 (LXFL 529): > 100 µM (inactive)
- GI50 (M14): > 100 µM (inactive)
- GI50 (M19-MEL): > 100 µM (inactive)
- GI50 (MOLT-4): > 100 µM (inactive)
- GI50 (NCI-H23): > 100 µM (inactive)
- GI50 (NCI-H460): > 100 µM (inactive)
- GI50 (OVCAR-3): > 100 µM (inactive)
- GI50 (OVCAR-4): > 100 µM (inactive)
- GI50 (OVCAR-8): > 100 µM (inactive)
- GI50 (RPMI-8226): > 100 µM (inactive)
- GI50 (RXF 393): > 100 µM (inactive)
- GI50 (RXF 631): > 100 µM (inactive)
- GI50 (SF-295): > 100 µM (inactive)
- GI50 (SF-539): > 100 µM (inactive)
- GI50 (SK-MEL-28): > 100 µM (inactive)
- GI50 (SK-MEL-5): > 100 µM (inactive)
- GI50 (SK-OV-3): > 100 µM (inactive)
- GI50 (SN12C): > 100 µM (inactive)
- GI50 (SNB-19): > 100 µM (inactive)
- GI50 (SNB-75): > 100 µM (inactive)
- GI50 (SNB-78): > 100 µM (inactive)
- GI50 (SW-620): > 100 µM (inactive)
- GI50 (TK-10): > 100 µM (inactive)
- GI50 (U-251): > 100 µM (inactive)
- GI50 (UACC-62): > 100 µM (inactive)
- GI50 (XF498): > 100 µM (inactive)

Compound: O=C1NN=CN2C(=O)CCC12 (stereo unspecified)
- GI50 (786-0): > 100 µM (inactive)
- GI50 (A498): > 100 µM (inactive)
- GI50 (A549): > 100 µM (inactive)
- GI50 (ACHN): > 100 µM (inactive)
- GI50 (CAKI-1): > 100 µM (inactive)
- GI50 (CCRF-CEM): > 100 µM (inactive)
- GI50 (COLO 205): > 100 µM (inactive)
- GI50 (DLD-1): > 100 µM (inactive)
- GI50 (DMS-114): > 100 µM (inactive)
- GI50 (DMS-273): > 100 µM (inactive)
- GI50 (EKVX): > 100 µM (inactive)
- GI50 (HCC 2998): > 100 µM (inactive)
- GI50 (HCT-116): > 100 µM (inactive)
- GI50 (HCT-15): > 100 µM
- GI50 (HL-60): > 100 µM (inactive)
- GI50 (HOP-62): > 100 µM (inactive)
- GI50 (HOP-92): > 100 µM (inactive)
- GI50 (IGROV-1): > 100 µM (inactive)
- GI50 (K562): > 100 µM (inactive)
- GI50 (KM-20L2): > 100 µM (inactive)
- GI50 (KM12): > 100 µM (inactive)
- GI50 (LOX IMVI): > 100 µM (inactive)
- GI50 (LXFL 529): > 100 µM (inactive)
- GI50 (M14): > 100 µM (inactive)
- GI50 (M19-MEL): > 100 µM (inactive)
- GI50 (MOLT-4): > 100 µM (inactive)
- GI50 (NCI-H23): > 100 µM (inactive)
- GI50 (NCI-H460): > 100 µM (inactive)
- GI50 (OVCAR-3): > 100 µM (inactive)
- GI50 (OVCAR-4): > 100 µM (inactive)
- GI50 (OVCAR-8): > 100 µM (inactive)
- GI50 (RPMI-8226): > 100 µM (inactive)
- GI50 (RXF 393): > 100 µM (inactive)
- GI50 (RXF 631): > 100 µM (inactive)
- GI50 (SF-268): > 100 µM (inactive)
- GI50 (SF-295): > 100 µM (inactive)
- GI50 (SF-539): > 100 µM (inactive)
- GI50 (SK-MEL-28): > 100 µM (inactive)
- GI50 (SK-MEL-2): > 100 µM (inactive)
- GI50 (SK-MEL-5): > 100 µM (inactive)
- GI50 (SK-OV-3): > 100 µM (inactive)
- GI50 (SN12C): > 100 µM (inactive)
- GI50 (SNB-19): > 100 µM (inactive)
- GI50 (SNB-75): > 100 µM (inactive)
- GI50 (SNB-78): > 100 µM (inactive)
- GI50 (SR): > 100 µM (inactive)
- GI50 (SW-620): > 100 µM (inactive)
- GI50 (TK-10): > 100 µM (inactive)
- GI50 (U-251): > 100 µM (inactive)
- GI50 (UACC-257): > 100 µM (inactive)
- GI50 (UACC-62): > 100 µM (inactive)
- GI50 (UO-31): > 100 µM (inactive)
- GI50 (XF498): > 100 µM (inactive)

Compound: Nc1nc(S)nc(C(=O)Nc2ccc(Cl)c(Cl)c2)c1-c1ccc(Cl)cc1
- GI50 (786-0): > 100 µM (inactive)
- GI50 (A498): > 100 µM (inactive)
- GI50 (A549): > 100 µM (inactive)
- GI50 (ACHN): > 100 µM (inactive)
- GI50 (CAKI-1): > 100 µM (inactive)
- GI50 (CCRF-CEM): > 100 µM (inactive)
- GI50 (COLO 205): > 100 µM (inactive)
- GI50 (DLD-1): > 100 µM (inactive)
- GI50 (DMS-114): > 100 µM (inactive)
- GI50 (EKVX): > 100 µM (inactive)
- GI50 (HCC 2998): > 100 µM (inactive)
- GI50 (HCT-116): 45.4 µM (inactive)
- GI50 (HCT-15): > 100 µM
- GI50 (HL-60): > 100 µM (inactive)
- GI50 (HOP-18): > 100 µM (inactive)
- GI50 (HOP-62): > 100 µM (inactive)
- GI50 (HOP-92): 93.1 µM (inactive)
- GI50 (HT-29): 71.4 µM (inactive)
- GI50 (IGROV-1): > 100 µM (inactive)
- GI50 (K562): 90.8 µM (inactive)
- GI50 (KM-20L2): > 100 µM (inactive)
- GI50 (KM12): > 100 µM (inactive)
- GI50 (LOX IMVI): > 100 µM (inactive)
- GI50 (LXFL 529): > 100 µM (inactive)
- GI50 (M14): 87.1 µM (inactive)
- GI50 (M19-MEL): > 100 µM (inactive)
- GI50 (MOLT-4): 14.7 µM (inactive)
- GI50 (Malme-3M): > 100 µM (inactive)
- GI50 (NCI-H226): > 100 µM (inactive)
- GI50 (NCI-H23): > 100 µM (inactive)
- GI50 (NCI-H460): > 100 µM (inactive)
- GI50 (NCI-H522): > 100 µM (inactive)
- GI50 (OVCAR-3): > 100 µM (inactive)
- GI50 (OVCAR-4): > 100 µM (inactive)
- GI50 (OVCAR-5): > 100 µM (inactive)
- GI50 (OVCAR-8): > 100 µM (inactive)
- GI50 (RPMI-8226): 62.7 µM (inactive)
- GI50 (RXF 393): > 100 µM (inactive)
- GI50 (RXF 631): > 100 µM (inactive)
- GI50 (SF-268): > 100 µM (inactive)
- GI50 (SF-295): > 100 µM (inactive)
- GI50 (SF-539): > 100 µM (inactive)
- GI50 (SK-MEL-28): > 100 µM (inactive)
- GI50 (SK-MEL-5): > 100 µM (inactive)
- GI50 (SK-OV-3): > 100 µM (inactive)
- GI50 (SN12C): > 100 µM (inactive)
- GI50 (SNB-19): > 100 µM (inactive)
- GI50 (SNB-75): > 100 µM (inactive)
- GI50 (SR): 76.6 µM (inactive)
- GI50 (SW-620): > 100 µM (inactive)
- GI50 (TK-10): > 100 µM (inactive)
- GI50 (U-251): > 100 µM (inactive)
- GI50 (UACC-257): > 100 µM (inactive)
- GI50 (UACC-62): > 100 µM (inactive)
- GI50 (UO-31): > 100 µM (inactive)
- GI50 (XF498): > 100 µM (inactive)
